Target: T1, human CGT (Homo sapiens, UniProt Q16880)
T1 sequence (Q16880 21-541): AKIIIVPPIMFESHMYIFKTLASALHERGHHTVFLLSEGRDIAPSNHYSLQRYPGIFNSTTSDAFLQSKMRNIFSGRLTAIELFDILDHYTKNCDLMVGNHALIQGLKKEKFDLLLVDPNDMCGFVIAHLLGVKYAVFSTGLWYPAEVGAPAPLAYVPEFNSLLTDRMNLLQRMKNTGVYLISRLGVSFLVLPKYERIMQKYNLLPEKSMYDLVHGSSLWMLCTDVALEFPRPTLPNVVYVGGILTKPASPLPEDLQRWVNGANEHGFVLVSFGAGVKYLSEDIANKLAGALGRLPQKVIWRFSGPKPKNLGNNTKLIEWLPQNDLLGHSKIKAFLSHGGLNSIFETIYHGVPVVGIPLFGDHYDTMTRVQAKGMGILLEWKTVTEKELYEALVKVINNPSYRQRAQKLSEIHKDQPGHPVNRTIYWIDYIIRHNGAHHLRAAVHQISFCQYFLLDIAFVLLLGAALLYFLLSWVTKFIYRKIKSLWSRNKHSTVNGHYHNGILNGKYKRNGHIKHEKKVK
Assay: CGT Enzyme Assay (Biological Example 2, RapidFire/MS/MS method with 0.01% Tween 80 added)
Type: biochemical
Conditions: enzymatic assay, CHO/CGT lysate
Method in brief: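 Lysate of CHO cells transfected with full-length human CGT, 0.5% DMSO final, 0.01% Tween 80 added; reactions stopped with methanol:acetonitrile holding internal standard. C6-NBD-dihydro-galactosylceramide and C6-NBD-dihydro-ceramide measured by RapidFire/MS/MS (ESI negative), product peak area normalized to internal standard.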

Row | SMILES | IC50
1 | C[C@@]1(C(F)(F)F)[C@H](c2cccc(OC(F)(F)F)c2)N(c2ccc(Br)cc2)C(=O)N1c1ccc(C#N)cc1 [Example 44-1, 4-((4S,5S)-3-(4-bromophenyl)-5-methyl-2-oxo-4-(3-(trifluoromethoxy)phenyl)-5-(trifluoromethyl)imidazolidin-1-yl)benzonitrile] | 1 to 10 µM
2 | CC1(C)[C@@H](c2cccc(OC(F)(F)F)c2)N(c2ccc(C(F)(F)F)cc2)C(=O)N1c1ccc(C(F)(F)F)cc1 [Example 20-1, (R)-4,4-dimethyl-5-(3-(trifluoromethoxy)phenyl)-1,3-bis(4-(trifluoromethyl)phenyl)imidazolidin-2-one] | < 1 µM
3 | O=C1N(c2ccc(Cl)cc2)[C@@H]2CCC[C@]2(c2cccc(C(F)F)c2)N1c1ccc(Cl)cc1 [Example 16-2, (3aR,6aR)-1,3-bis(4-chlorophenyl)-3a-(3-(difluoromethyl)phenyl)hexahydrocyclopenta[d]imidazol-2(1H)-one] | 10 to 30 µM
